Results published in patent US12037322B2, “AHR agonists” (Eli Lilly and Company, priority 2021, dated 2024).

Biological target: T1, hAHR (Homo sapiens, UniProt P35869)
T1 construct: expressed in transfected cells
T1 sequence (P35869 11-848): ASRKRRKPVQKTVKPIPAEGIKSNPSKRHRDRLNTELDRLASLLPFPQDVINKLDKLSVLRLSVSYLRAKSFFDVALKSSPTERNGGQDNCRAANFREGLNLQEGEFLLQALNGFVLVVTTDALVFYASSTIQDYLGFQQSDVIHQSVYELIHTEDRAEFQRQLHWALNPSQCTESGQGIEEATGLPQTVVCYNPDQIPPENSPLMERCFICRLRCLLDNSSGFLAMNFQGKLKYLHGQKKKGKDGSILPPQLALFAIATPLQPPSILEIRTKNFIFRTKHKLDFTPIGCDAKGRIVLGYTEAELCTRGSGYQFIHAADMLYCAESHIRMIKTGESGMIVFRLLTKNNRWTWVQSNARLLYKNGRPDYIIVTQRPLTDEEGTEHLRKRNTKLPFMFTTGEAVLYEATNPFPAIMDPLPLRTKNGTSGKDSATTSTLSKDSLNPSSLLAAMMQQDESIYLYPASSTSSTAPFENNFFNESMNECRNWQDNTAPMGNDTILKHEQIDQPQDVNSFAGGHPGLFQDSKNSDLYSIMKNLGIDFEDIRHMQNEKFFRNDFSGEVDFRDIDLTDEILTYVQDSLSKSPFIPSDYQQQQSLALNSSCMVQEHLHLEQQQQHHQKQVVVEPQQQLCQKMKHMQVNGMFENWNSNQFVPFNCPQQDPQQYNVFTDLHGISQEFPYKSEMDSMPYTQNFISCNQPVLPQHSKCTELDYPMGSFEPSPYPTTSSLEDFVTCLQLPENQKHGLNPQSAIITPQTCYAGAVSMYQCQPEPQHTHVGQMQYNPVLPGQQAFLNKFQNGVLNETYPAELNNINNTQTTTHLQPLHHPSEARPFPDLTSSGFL
Test: hAHR nuclear translocation assay
Format: cell-based
Conditions: Jump-In T-REx HEK293 cells expressing AhR-EGFP; 45 min incubation; ratio of EGFP intensity in nuclear over cytosol; 20-point curve
Experimental: Stable cell lines were established using Jump-In™ T-REx™ HEK293 Retargeting Kit (Life Technologies). hAhR cDNA was cloned into the pJTI R4 CMV-TO EGFP vector. The EGFP was cloned to the C-terminal of AHR to form AhR-EGFP chimera. The pJTI R4 CMV-TO AhR-EGFP vector was transfected using FuGENE® HD into Jump-In™ T-REx™ HEK293 cells. Transfected cells were selected using 2.5 mg/ml G418 for 10 to 14 days, then expanded, harvested, and suspended in freeze media (FBS with 8% DMSO) at 2×10^7 cells/mL, and aliquots were stored in liquid nitrogen. One day before the assay date, cells were thawed and resuspended in DMEM with 5% FBS in the presence of 1 μg/mL Doxycycline and plated into ploy-L-Lysine coated […]-384 ULTRA Microplates (Perkin Elmer) at 12,000 to 15,000 cells per well and incubated at 37° C. and 5% CO2 overnight. On the assay date, compound was serially diluted (1:2) into 384-well nunc plates with DMSO using acoustic dispensing (ECHO). The dose response was a 20-point curve. Compound was resuspended in 40 μL of DMEM plus 0.1% BSA. The culture media was damped and 25 μL of DMEM plus 0.1% BSA was added, then 25 μL of compound in DMEM plus 0.1% BSA was added into cell plates. Cells were incubated with compounds at 37° C. and 5% CO2 for 45 min.
The final DMSO concentration was 0.2%. The media was damped after 45 minutes incubation. The cells were fixed with 40 μL of cold MeOH (−20° C.) for 20 min. The MeOH was damped and 50 μL of DPBS containing 1 μg/mL Hochst was added into the cell plates. The intensity of EGFP was quantitated by using OPERA PHENIX® or Operetta™ high content image system (Perkin Elmer) with 20× Water Objective and five field per well. The ratio of EGFP fluorescent intensity in nuclear over cytosol was analyzed using a 4-parameter nonlinear logistic equation to determine the potency of AhR agonists.

CC1CCc2c1c(O)c(C(=O)Nc1ncc(F)cn1)c(=O)n2C (stereo not shown) [Example 30, N-(5-Fluoropyrimidin-2-yl)-4-hydroxy-1,5-dimethyl-2-oxo-6,7-dihydro-5H-cyclopenta[b]pyridine-3-carboxamide]
EC50: 1.62 nM

Cn1c2c(cc(C(=O)Nc3ccccc3)c1=O)CC(C)(C)C2 [Example 47, 1,6,6-Trimethyl-2-oxo-N-phenyl-5,7-dihydrocyclopenta[b]pyridine-3-carboxamide]
EC50: 0.803 nM

CC1CCc2c1cc(C(=O)Nc1nccs1)c(=O)n2C (single isomer, unassigned) [Example 62, 1,5-Dimethyl-2-oxo-N-thiazol-2-yl-6,7-dihydro-5H-cyclopenta[b]pyridine-3-carboxamide]
EC50: 1.84 nM

CC1CCc2c1c(O)c(C(=O)Nc1ncccn1)c(=O)n2C (single isomer, unassigned) [Example 85, 4-Hydroxy-1,5-dimethyl-2-oxo-N-pyrimidin-2-yl-6,7-dihydro-5H-cyclopenta[b]pyridine-3-carboxamide]
EC50: 4.1 nM

C[C@H]1CCc2c1cc(C(=O)Nc1ncco1)c(=O)n2C [Example 75, (5S)-1,5-Dimethyl-N-oxazol-2-yl-2-oxo-6,7-dihydro-5H-cyclopenta[b]pyridine-3-carboxamide]
EC50: 17.7 nM

CC(C)C1CCc2c1cc(C(=O)Nc1ncc(F)cn1)c(=O)n2C (single isomer, unassigned) [Example 112, N-(5-fluoropyrimidin-2-yl)-5-isopropyl-1-methyl-2-oxo-6,7-dihydro-5H-cyclopenta[b]pyridine-3-carboxamide]
EC50: 0.865 nM

Cn1c2c(cc(C(=O)Nc3ncc(F)cn3)c1=O)C(C)(C)CC2 [Example 14, N-(5-Fluoropyrimidin-2-yl)-1,5,5-trimethyl-2-oxo-6,7-dihydrocyclopenta[b]pyridine-3-carboxamide]
EC50: 26.8 nM

CC1CCc2c1cc(C(=O)Nc1ncccn1)c(=O)n2C (single isomer, unassigned) [Example 82, 1,5-Dimethyl-2-oxo-N-pyrimidin-2-yl-6,7-dihydro-5H-cyclopenta[b]pyridine-3-carboxamide]
EC50: 25.1 nM

CC1CCc2c1c(O)c(C(=O)Nc1ccc(C(F)(F)F)cn1)c(=O)n2C (stereo not shown) [Example 33, 4-Hydroxy-1,5-dimethyl-2-oxo-N-[5-(trifluoromethyl)-2-pyridyl]-6,7-dihydro-5H-cyclopenta[b]pyridine-3-carboxamide]
EC50: 2.64 nM

CCN1CCc2c(cc(C(=O)Nc3ccccc3)c(=O)n2C)C1 [Example 107, 6-Ethyl-1-methyl-2-oxo-N-phenyl-7,8-dihydro-5H-1,6-naphthyridine-3-carboxamide]
EC50: 108 nM

CC1CCc2c1cc(C(=O)NC1CCCC1)c(=O)n2C (single isomer, unassigned) [Example 61, N-Cyclopentyl-1,5-dimethyl-2-oxo-6,7-dihydro-5H-cyclopenta[b]pyridine-3-carboxamide]
EC50: 42 nM

CC1CCc2c1cc(C(=O)Nc1ncc(F)cn1)c(=O)n2C (stereo not shown) [Example 1, N-(5-Fluoropyrimidin-2-yl)-1,5-dimethyl-2-oxo-6,7-dihydro-5H-cyclopenta[b]pyridine-3-carboxamide]
EC50: 9.78 nM

CC1CCc2c1c(O)c(C(=O)Nc1ccsn1)c(=O)n2C (single isomer, unassigned) [Example 39, 4-Hydroxy-N-isothiazol-3-yl-1,5-dimethyl-2-oxo-6,7-dihydro-5H-cyclopenta[b]pyridine-3-carboxamide]
EC50: 0.378 nM

CC1CCc2c1cc(C(=O)Nc1ccc(F)cn1)c(=O)n2C (stereo not shown) [Example 2, N-(5-Fluoro-2-pyridyl)-1,5-dimethyl-2-oxo-6,7-dihydro-5H-cyclopenta[b]pyridine-3-carboxamide]
EC50: 9.78 nM

CC1CCc2c1c(O)c(C(=O)Nc1ncccc1F)c(=O)n2C (single isomer, unassigned) [Example 92, N-(3-Fluoro-2-pyridyl)-4-hydroxy-1,5-dimethyl-2-oxo-6,7-dihydro-5H-cyclopenta[b]pyridine-3-carboxamide]
EC50: 1.44 nM

C[C@@H]1CCc2c1cc(C(=O)Nc1ncco1)c(=O)n2C [Example 74, (5R)-1,5-Dimethyl-N-oxazol-2-yl-2-oxo-6,7-dihydro-5H-cyclopenta[b]pyridine-3-carboxamide]
EC50: 19 nM

CC1CCc2c1cc(C(=O)Nc1ncc(C(F)(F)F)cn1)c(=O)n2C (single isomer, unassigned) [Example 64, 1,5-Dimethyl-2-oxo-N-[5-(trifluoromethyl)pyrimidin-2-yl]-6,7-dihydro-5H-cyclopenta[b]pyridine-3-carboxamide]
EC50: 1.54 nM

CC1CCc2c1c(O)c(C(=O)Nc1ncc(C(F)(F)F)cn1)c(=O)n2C (stereo not shown) [Example 32, 4-Hydroxy-1,5-dimethyl-2-oxo-N-[5-(trifluoromethyl)pyrimidin-2-yl]-6,7-dihydro-5H-cyclopenta[b]pyridine-3-carboxamide]
EC50: 0.845 nM

CC1CCc2c1cc(C(=O)Nc1nccc(C(F)(F)F)n1)c(=O)n2C (stereo not shown) [Example 7, 1,5-Dimethyl-2-oxo-N-[4-(trifluoromethyl)pyrimidin-2-yl]-6,7-dihydro-5H-cyclopenta[b]pyridine-3-carboxamide]
EC50: 8.26 nM

CC1CCc2c1c(O)c(C(=O)Nc1ncc(Cl)cn1)c(=O)n2C (single isomer, unassigned) [Example 93, N-(5-Chloropyrimidin-2-yl)-4-hydroxy-1,5-dimethyl-2-oxo-6,7-dihydro-5H-cyclopenta[b]pyridine-3-carboxamide]
EC50: 1.06 nM

CC1Cc2cc(C(=O)Nc3ncccn3)c(=O)n(C)c2C1 (stereo not shown) [Example 79, 1,6-Dimethyl-2-oxo-N-pyrimidin-2-yl-6,7-dihydro-5H-cyclopenta[b]pyridine-3-carboxamide]
EC50: 20.3 nM

CC1CCc2c1c(O)c(C(=O)Nc1ncc(F)cn1)c(=O)n2C (single isomer, unassigned) [Example 96, N-(5-Fluoropyrimidin-2-yl)-4-hydroxy-1,5-dimethyl-2-oxo-6,7-dihydro-5H-cyclopenta[b]pyridine-3-carboxamide]
EC50: 0.6 nM

CC1CCc2c1c(O)c(C(=O)Nc1ccns1)c(=O)n2C (single isomer, unassigned) [Example 37, 4-Hydroxy-N-isothiazol-5-yl-1,5-dimethyl-2-oxo-6,7-dihydro-5H-cyclopenta[b]pyridine-3-carboxamide]
EC50: 1.97 nM

Cn1c2c(cc(C(=O)Nc3ccccc3)c1=O)COC(C)(C)C2 [Example 51, 1,7,7-Trimethyl-2-oxo-N-phenyl-5,8-dihydropyrano[4,3-b]pyridine-3-carboxamide]
EC50: 4.35 nM

CC1Cc2c(O)c(C(=O)Nc3ccccn3)c(=O)n(C)c2C1 (single isomer, unassigned) [Example 88, 4-Hydroxy-1,6-dimethyl-2-oxo-N-(2-pyridyl)-6,7-dihydro-5H-cyclopenta[b]pyridine-3-carboxamide]
EC50: 0.897 nM

CC1CCc2c1c(O)c(C(=O)Nc1nccc(C(F)(F)F)n1)c(=O)n2C (stereo not shown) [Example 31, 4-Hydroxy-1,5-dimethyl-2-oxo-N-[4-(trifluoromethyl)pyrimidin-2-yl]-6,7-dihydro-5H-cyclopenta[b]pyridine-3-carboxamide]
EC50: 2.4 nM

Cn1c2c(cc(C(=O)Nc3ccccc3)c1=O)CC(C)(C)CC2 [Example 105, 1,6,6-Trimethyl-2-oxo-N-phenyl-7,8-dihydro-5H-quinoline-3-carboxamide]
EC50: 0.64 nM

C[C@@H]1CCc2c1cc(C(=O)Nc1ccccc1)c(=O)n2C [Example 66, (5R)-1,5-Dimethyl-2-oxo-N-phenyl-6,7-dihydro-5H-cyclopenta[b]pyridine-3-carboxamide]
EC50: 0.525 nM
